Data on eight compounds can be found in ChEMBL document CHEMBL1155772, “Peroxide bond-dependent antiplasmodial specificity of artemisinin and OZ277 (RBx11160)” (Antimicrob Agents Chemother, 2007).

≈ marks a conversion by molar mass, not a printed value. Calls of active or inactive are those of the source. The rule behind the calls is not given here.

As usually defined, the IC50 is the concentration needed to halve the response being measured. Low values mean higher potency, high ones lower potency. In general, inhibition refers to the relative decrease from the control value, in per cent. Higher therefore signals a strong effect.

In experiment [1] the test system is Neospora caninum. In words: Antimicrobial activity against Neospora caninum up to 1 ug/ml. Type of experiment: functional, organism-based.
Experiment [2] deals with Plasmodium falciparum. In words: Antiplasmodial activity against Plasmodium falciparum K1. The class given is functional, organism-based.
For experiment [3], the system named is Plasmodium falciparum. In words: Antiplasmodial activity against Plasmodium falciparum NF54. Type of experiment: functional, organism-based.
For experiment [4], the system named is Trypanosoma brucei rhodesiense. In words: Antitrypanosomal activity against Trypanosoma brucei rhodesiense STIB900. The class given is functional, organism-based.
Experiment [5] relates to Trypanosoma cruzi. In words: Antitrypanosomal activity against Trypanosoma cruzi Tulahuen C4. Type of experiment: functional, organism-based.
Experiment [6] relates to Leishmania donovani. In words: Antileishmanial activity against Leishmania donovani MHOM-ET-67/L82 amastigotes by axenic assay. The class given is functional, organism-based.
Experiment [7] has as its system Giardia intestinalis. In words: Antimicrobial activity against Giardia duodenalis WB. Type of experiment: functional, organism-based.
In experiment [8] the test system is Giardia intestinalis. In words: Antimicrobial activity against Giardia duodenalis G1. Type of experiment: functional, organism-based.
For experiment [9], the system named is Babesia divergens. In words: Antimicrobial activity against Babesia divergens 1903B. Type of experiment: functional, organism-based.
Experiment [10] deals with Babesia divergens. In words: Antimicrobial activity against Babesia divergens 4201. The class given is functional, organism-based.
The test system of experiment [11] is Leishmania major. In words: Antileishmanial activity against Leishmania major amastigotes. The class given is functional, organism-based.
Experiment [12] has as its system Leishmania donovani. In words: Antileishmanial activity against Leishmania donovani promastigotes. The class given is functional, organism-based.
Experiment [13] relates to Toxoplasma gondii. In words: Antimicrobial activity against Toxoplasma gondii in normal human foreskin fibroblasts. Type of experiment: functional, organism-based.
The subject of experiment [14] is Pneumocystis carinii. In words: Antimicrobial activity against Pneumocystis carinii at 0.14 ug/ml in feeder layer cells. The class given is functional.
Experiment [15] in a line: Inhibition of Plasmodium falciparum ATP6.

On to `C[C@@H]1CC[C@H]2[C@@H](C)C(=O)O[C@@H]3O[C@@]4(C)CC[C@@H]1[C@]32OO4` [ARTEMISININ], for which the outcome in experiment [1] was inactive. Further, the IC50 is 0.002 µg/mL (≈ 0.00708 µM) in experiment [2]; 0.004 µg/mL (≈ 0.0142 µM) in experiment [3]; 25 µg/mL (≈ 88.5 µM) in [4]; above 30 µg/mL in experiment [5]; 8.8 µg/mL (≈ 31.2 µM) in experiment [6]; 65 µg/mL (≈ 230 µM) in experiment [7]. Moreover, the IC50 in experiment [8] was 49 µg/mL (≈ 174 µM); in experiment [9], above 10 µg/mL; in experiment [10] it was above 10 µg/mL; in experiment [11], 8 µg/mL (≈ 28.3 µM); in [12] it was 8 µg/mL (≈ 28.3 µM); in experiment [13], 2.3 µg/mL (≈ 8.15 µM). In experiment [15], this compound returned an IC50 of 0.079 µM. Besides, 0.14 µg/mL produced 55% inhibition in [14].

In the case of `C[C@@H]1CC[C@H]2[C@@H](C)C(=O)O[C@@H]3O[C@@]4(C)CC[C@@H]1[C@]32O4` [DEOXYARTEMISININ], the result in [1] was inactive. Moreover, the IC50 in experiment [2] is above 10 µg/mL; in experiment [3], above 10 µg/mL; in experiment [4], 34 µg/mL (≈ 128 µM); in experiment [5], above 30 µg/mL; in experiment [6], above 30 µg/mL; in [7], 91 µg/mL (≈ 342 µM). Also, the values for the IC50 in [8], in experiment [9] and in [10] were 28 µg/mL (≈ 105 µM), above 10 µg/mL and above 10 µg/mL, respectively.

As for `CCCSc1ccc2[nH]c(NC(=O)OC)nc2c1` [ALBENDAZOLE], the IC50 was determined as 0.019 µg/mL (≈ 0.0716 µM) in [7] and 0.018 µg/mL (≈ 0.0678 µM) in [8].

Regarding `CC(C)(N)CNC(=O)C[C@H]1CC[C@]2(CC1)OO[C@]1(O2)C2CC3CC(C2)CC1C3` [OZ277], in experiment [1], the result was inactive. For the same compound, the IC50 in [3] came out at 0.00091 µg/mL (≈ 0.00232 µM); in experiment [4], 0.56 µg/mL (≈ 1.43 µM); in experiment [5] it was 9.5 µg/mL (≈ 24.2 µM); in experiment [6] it was 24 µg/mL (≈ 61.1 µM); in [7], 41 µg/mL (≈ 104 µM); in [8], 49 µg/mL (≈ 125 µM). In addition, the IC50 in experiment [9] was above 10 µg/mL; in [10], above 10 µg/mL; in experiment [15], 7.7 µM.

In the case of `CC(C)(N)CNC(=O)CC1CC[C@]2(CC1)OC[C@]1(O2)C2CC3CC(C2)CC1C3` (stereo partly specified), in experiment [1], the outcome was inactive. Further, the IC50 was 2.5 µg/mL (≈ 6.4 µM) in [2]; 4.9 µg/mL (≈ 12.5 µM) in [3]; 0.77 µg/mL (≈ 1.97 µM) in experiment [4]; 13 µg/mL (≈ 33.3 µM) in [5]; 20 µg/mL (≈ 51.2 µM) in experiment [6]; 38 µg/mL (≈ 97.3 µM) in experiment [7]. Besides, the half-inhibitory concentration (IC50) came out at 18 µg/mL (≈ 46.1 µM) in experiment [8], 6.7 µg/mL (≈ 17.2 µM) in experiment [9] and 7.5 µg/mL (≈ 19.2 µM) in experiment [10].

The compound `O=C(Cn1ccnc1[N+](=O)[O-])NCc1ccccc1` [BENZNIDAZOLE] showed an IC50 in experiment [5] of 0.14 µg/mL (≈ 0.538 µM).

In turn, `CCCCCCCCCCCCCCCCOP(=O)([O-])OCC[N+](C)(C)C` [MILTEFOSINE] yielded an IC50 in experiment [6] of 0.2 µg/mL (≈ 0.491 µM).

Take `O=C1C(O)=C([C@H]2CC[C@H](c3ccc(Cl)cc3)CC2)C(=O)c2ccccc21` [ATOVAQUONE]: the IC50 in [9] was 0.0091 µg/mL (≈ 0.0248 µM); in [10], 0.0087 µg/mL (≈ 0.0237 µM).
